What was measured:
Assay in all cases: relative viability (nuclei count vs DMSO), 5 days (fraction); higher = more cells survive
Quizartinib + Bortezomib = compound: CC(C)(C)c1cc(NC(=O)Nc2ccc(-c3cn4c(n3)sc3cc(OCCN5CCOCC5)ccc34)cc2)no1 [Quizartinib] + CC(C)C[C@H](NC(=O)[C@H](Cc1ccccc1)NC(=O)c1cnccn1)B(O)O [Bortezomib] (partner 0.002 µM)
Outline: (§1)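 Each reported value is a median over duplicate plates. It expresses relative viability: treated-well nuclei count divided by vehicle-well nuclei count. Lung cancer cell lines in 1536-well plates were dosed by pin tool a day after seeding, alone with one drug or with a fixed anchor-drug dose plus five library-drug doses (not always all listed) in √10 steps, and nuclei were counted after 5 days.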

Quizartinib + Linsitinib = compound: CC(C)(C)c1cc(NC(=O)Nc2ccc(-c3cn4c(n3)sc3cc(OCCN5CCOCC5)ccc34)cc2)no1 [Quizartinib] + C[C@]1(O)C[C@@H](c2nc(-c3ccc4ccc(-c5ccccc5)nc4c3)c3c(N)nccn32)C1 [Linsitinib] (partner 1 µM)
Outline: as §1

YM155 + Palbociclib = compound: COCC[n+]1c2c(n(Cc3cnccn3)c1C)C(=O)c1ccccc1C2=O [YM155] + CC(=O)c1c(C)c2cnc(Nc3ccc(N4CCNCC4)cn3)nc2n(C2CCCC2)c1=O [Palbociclib] (partner 0.5 µM)
Outline: as §1

YM155 + Dasatinib = compound: COCC[n+]1c2c(n(Cc3cnccn3)c1C)C(=O)c1ccccc1C2=O [YM155] + Cc1nc(Nc2ncc(C(=O)Nc3c(C)cccc3Cl)s2)cc(N2CCN(CCO)CC2)n1 [Dasatinib] (partner 0.075 µM)
Outline: as §1

Cell Line	relative viability (Quizartinib + Bortezomib; first compound 0.001 µM)	relative viability (Quizartinib + Bortezomib; first compound 0.003162 µM)	relative viability (Quizartinib + Bortezomib; first compound 0.01 µM)	relative viability (Quizartinib + Bortezomib; first compound 0.03162 µM)	relative viability (Quizartinib + Bortezomib; first compound 0.1 µM)	relative viability (Quizartinib + Linsitinib; first compound 0.001 µM)	relative viability (Quizartinib + Linsitinib; first compound 0.003162 µM)	relative viability (Quizartinib + Linsitinib; first compound 0.01 µM)	relative viability (Quizartinib + Linsitinib; first compound 0.03162 µM)	relative viability (Quizartinib + Linsitinib; first compound 0.1 µM)	relative viability (YM155 + Palbociclib; first compound 0.002 µM)	relative viability (YM155 + Palbociclib; first compound 0.006325 µM)	relative viability (YM155 + Palbociclib; first compound 0.02 µM)	relative viability (YM155 + Palbociclib; first compound 0.06325 µM)	relative viability (YM155 + Dasatinib; first compound 0.002 µM)	relative viability (YM155 + Dasatinib; first compound 0.006325 µM)	relative viability (YM155 + Dasatinib; first compound 0.02 µM)	relative viability (YM155 + Dasatinib; first compound 0.06325 µM)
NCI-H322M	1.15	1.26	1.27	1.24	1.15	0.798	1.01	1.02	0.917	0.92	0.433	0.471	0.503	0.473	0.238	0.271	0.278	0.26
NCI-H1975	0.333	0.374	0.389	0.368	0.497	0.964	0.85	0.956	1	1.17	0.463	0.531	0.643	0.259	0.312	0.334	0.352	0.233
NCI-H2023	0.777	0.947	0.942	0.751	0.926	0.556	0.585	0.564	0.454	0.574	0.384	0.423	0.21	0.105	0.486	0.588	0.52	0.374
COR-L 105	0.64	0.632	0.634	0.632	0.617	0.704	0.846	1.23	0.733	0.95	0.371	0.388	0.424	0.401	0.284	0.333	0.312	0.283
NCI-H23		0.937	1.08	0.97	0.888		0.577	0.615	0.555	0.661		0.567	0.523	0.388	0.634	0.692	0.785	0.601
NCI-H441	0.476	0.466	0.451	0.576	1.57	0.357	0.645	0.607	0.51	0.479	0.224	0.202	0.267	0.213	0.609	0.674	0.558	0.495
